Assay results published in ChEMBL document CHEMBL5291721, “A preclinical secondary pharmacology resource illuminates target-adverse drug reaction associations of marketed drugs” (Nat Commun, 2023).

What was measured:
Estrogen receptor = molecular target: T1, Estrogen receptor (Homo sapiens, UniProt P03372)
T1 sequence (P03372 whole entry): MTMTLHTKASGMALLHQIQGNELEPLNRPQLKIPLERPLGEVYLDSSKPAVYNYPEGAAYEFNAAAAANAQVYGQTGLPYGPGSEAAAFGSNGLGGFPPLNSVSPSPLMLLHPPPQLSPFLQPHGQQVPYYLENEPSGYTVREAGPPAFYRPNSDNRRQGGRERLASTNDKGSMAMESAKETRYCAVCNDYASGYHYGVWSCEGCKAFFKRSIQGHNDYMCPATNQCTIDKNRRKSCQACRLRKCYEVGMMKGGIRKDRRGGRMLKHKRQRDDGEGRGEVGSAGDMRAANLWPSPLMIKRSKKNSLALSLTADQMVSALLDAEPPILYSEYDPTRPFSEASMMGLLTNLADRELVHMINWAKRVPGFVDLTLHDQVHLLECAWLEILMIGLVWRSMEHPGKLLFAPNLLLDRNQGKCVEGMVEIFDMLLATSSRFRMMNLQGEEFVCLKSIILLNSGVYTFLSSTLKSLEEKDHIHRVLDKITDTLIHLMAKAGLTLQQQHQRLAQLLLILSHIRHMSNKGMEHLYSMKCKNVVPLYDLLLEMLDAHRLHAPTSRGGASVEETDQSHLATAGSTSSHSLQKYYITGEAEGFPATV

Mu-type opioid receptor [1] = molecular target: T2, Mu-type opioid receptor (Homo sapiens, UniProt P35372); test: biochemical; format: functional
T2 sequence (P35372 whole entry): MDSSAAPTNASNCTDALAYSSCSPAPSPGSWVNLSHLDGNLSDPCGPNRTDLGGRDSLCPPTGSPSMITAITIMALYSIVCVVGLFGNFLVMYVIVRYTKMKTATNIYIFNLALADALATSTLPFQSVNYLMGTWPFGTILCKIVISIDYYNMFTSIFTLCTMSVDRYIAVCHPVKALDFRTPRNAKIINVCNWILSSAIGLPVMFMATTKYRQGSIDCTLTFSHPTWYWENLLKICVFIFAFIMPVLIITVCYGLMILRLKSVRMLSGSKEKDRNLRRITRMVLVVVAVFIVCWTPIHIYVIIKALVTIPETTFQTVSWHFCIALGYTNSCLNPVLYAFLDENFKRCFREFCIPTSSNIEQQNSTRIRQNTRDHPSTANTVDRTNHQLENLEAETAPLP

[2] = molecular target: T3, 5-hydroxytryptamine receptor 1A (Homo sapiens, UniProt P08908); format: functional, cell-based
T3 sequence (P08908 whole entry): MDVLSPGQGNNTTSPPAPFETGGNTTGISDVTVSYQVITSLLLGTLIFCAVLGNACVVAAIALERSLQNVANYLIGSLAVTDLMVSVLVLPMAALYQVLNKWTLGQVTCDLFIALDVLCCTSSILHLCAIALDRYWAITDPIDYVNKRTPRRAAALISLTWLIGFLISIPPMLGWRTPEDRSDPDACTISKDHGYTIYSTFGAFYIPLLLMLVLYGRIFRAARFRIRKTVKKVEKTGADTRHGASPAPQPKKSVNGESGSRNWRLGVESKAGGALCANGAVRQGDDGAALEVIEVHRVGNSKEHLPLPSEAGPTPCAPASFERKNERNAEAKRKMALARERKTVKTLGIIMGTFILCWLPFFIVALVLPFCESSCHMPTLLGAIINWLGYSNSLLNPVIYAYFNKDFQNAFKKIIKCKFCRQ

[3] = molecular target: Neuronal acetylcholine receptor subunit alpha-4 (Homo sapiens, UniProt P43681)
Chain of Neuronal acetylcholine receptor subunit alpha-4 (P43681 whole entry): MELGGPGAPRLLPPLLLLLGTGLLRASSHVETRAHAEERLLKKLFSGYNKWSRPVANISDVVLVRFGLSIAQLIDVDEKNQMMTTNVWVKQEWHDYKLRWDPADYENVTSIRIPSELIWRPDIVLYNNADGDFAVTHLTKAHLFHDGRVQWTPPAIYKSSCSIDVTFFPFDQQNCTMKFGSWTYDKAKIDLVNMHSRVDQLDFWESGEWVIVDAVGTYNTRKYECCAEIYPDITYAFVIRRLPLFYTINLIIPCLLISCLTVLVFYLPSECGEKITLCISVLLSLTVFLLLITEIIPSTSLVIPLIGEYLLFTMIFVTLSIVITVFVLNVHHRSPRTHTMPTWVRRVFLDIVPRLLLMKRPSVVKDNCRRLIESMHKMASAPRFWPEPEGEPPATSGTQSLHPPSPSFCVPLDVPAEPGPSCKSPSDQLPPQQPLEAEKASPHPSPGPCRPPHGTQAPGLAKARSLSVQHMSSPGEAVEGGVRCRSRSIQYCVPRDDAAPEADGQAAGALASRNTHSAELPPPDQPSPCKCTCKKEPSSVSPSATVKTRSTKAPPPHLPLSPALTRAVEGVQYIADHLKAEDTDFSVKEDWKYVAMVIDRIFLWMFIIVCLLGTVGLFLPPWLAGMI

Adenosine receptor A1 = molecular target: T4, Adenosine receptor A1 (Homo sapiens, UniProt P30542)
T4 sequence (P30542 whole entry): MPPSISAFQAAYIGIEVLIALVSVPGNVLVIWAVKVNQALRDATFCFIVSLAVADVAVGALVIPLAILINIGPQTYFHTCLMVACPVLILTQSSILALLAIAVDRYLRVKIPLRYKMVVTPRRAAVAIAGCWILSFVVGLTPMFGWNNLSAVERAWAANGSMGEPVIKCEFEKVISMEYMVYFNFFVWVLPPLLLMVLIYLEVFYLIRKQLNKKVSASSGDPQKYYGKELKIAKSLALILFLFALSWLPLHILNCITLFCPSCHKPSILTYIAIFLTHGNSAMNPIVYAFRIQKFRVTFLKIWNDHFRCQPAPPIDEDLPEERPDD

[4] = molecular target: Glutamate receptor ionotropic, NMDA 1 (Rattus norvegicus, UniProt P35439)
[5] = molecular target: Voltage-gated inwardly rectifying potassium channel KCNH2 (Homo sapiens, UniProt Q12809); format: functional
Chain of Voltage-gated inwardly rectifying potassium channel KCNH2 (Q12809 whole entry): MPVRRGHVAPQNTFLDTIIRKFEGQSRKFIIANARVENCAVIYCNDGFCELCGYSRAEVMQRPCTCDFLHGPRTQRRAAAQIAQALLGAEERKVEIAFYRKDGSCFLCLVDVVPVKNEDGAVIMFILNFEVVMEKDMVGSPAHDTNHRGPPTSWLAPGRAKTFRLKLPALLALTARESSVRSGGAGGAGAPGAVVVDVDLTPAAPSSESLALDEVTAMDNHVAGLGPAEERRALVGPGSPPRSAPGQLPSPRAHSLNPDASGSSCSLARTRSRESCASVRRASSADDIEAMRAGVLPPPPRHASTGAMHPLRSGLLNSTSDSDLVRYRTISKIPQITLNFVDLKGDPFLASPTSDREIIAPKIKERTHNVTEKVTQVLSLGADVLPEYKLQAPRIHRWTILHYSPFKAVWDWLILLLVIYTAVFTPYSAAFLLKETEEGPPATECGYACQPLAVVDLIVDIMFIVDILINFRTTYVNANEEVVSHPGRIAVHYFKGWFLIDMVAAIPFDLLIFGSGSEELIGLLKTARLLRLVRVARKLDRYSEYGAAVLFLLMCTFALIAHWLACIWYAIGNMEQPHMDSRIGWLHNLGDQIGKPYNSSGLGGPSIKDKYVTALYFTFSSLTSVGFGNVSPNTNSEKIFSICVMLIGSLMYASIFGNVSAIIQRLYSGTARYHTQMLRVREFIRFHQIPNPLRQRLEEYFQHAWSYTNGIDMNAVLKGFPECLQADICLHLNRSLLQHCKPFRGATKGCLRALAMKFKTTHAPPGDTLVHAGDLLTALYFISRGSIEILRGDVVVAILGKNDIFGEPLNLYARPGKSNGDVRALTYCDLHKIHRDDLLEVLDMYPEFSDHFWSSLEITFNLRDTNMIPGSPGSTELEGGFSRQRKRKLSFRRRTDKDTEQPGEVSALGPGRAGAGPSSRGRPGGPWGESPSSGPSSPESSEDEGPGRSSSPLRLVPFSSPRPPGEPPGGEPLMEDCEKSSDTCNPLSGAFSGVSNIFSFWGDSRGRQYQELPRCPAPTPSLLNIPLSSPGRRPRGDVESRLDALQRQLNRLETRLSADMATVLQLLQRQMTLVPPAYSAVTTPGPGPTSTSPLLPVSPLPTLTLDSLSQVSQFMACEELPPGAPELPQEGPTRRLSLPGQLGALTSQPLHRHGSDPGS

[6] = molecular target: T5, 5-hydroxytryptamine receptor 3A (Homo sapiens, UniProt P46098); format: functional
T5 sequence (P46098 whole entry): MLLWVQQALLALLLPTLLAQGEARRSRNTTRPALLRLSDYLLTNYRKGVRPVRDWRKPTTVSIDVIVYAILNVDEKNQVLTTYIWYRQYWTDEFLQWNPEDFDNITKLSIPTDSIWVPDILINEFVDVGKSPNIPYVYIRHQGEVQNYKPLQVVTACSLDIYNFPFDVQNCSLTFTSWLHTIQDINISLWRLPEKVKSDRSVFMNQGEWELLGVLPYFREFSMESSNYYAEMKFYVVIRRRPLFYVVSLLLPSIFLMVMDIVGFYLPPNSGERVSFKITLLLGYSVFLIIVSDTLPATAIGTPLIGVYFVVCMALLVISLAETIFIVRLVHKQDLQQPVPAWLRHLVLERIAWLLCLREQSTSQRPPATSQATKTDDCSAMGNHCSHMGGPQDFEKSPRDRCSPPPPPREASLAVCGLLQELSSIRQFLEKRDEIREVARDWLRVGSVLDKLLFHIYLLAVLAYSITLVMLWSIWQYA

Mu-type opioid receptor [7] = molecular target: T2, Mu-type opioid receptor
Melanocortin receptor 4 = Melanocortin receptor 4 (Homo sapiens, UniProt P32245)
Chain of Melanocortin receptor 4 (P32245 whole entry): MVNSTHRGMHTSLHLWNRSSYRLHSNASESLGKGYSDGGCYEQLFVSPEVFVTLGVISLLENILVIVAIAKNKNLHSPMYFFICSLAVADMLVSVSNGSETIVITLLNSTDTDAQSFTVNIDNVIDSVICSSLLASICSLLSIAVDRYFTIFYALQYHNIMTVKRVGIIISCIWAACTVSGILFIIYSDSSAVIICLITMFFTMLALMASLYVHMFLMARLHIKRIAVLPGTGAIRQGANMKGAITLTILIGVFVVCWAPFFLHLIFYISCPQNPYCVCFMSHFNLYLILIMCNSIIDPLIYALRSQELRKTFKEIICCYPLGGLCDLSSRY

Cannabinoid receptor 1 = Cannabinoid receptor 1 (Homo sapiens, UniProt P21554)
Chain of Cannabinoid receptor 1 (P21554 whole entry): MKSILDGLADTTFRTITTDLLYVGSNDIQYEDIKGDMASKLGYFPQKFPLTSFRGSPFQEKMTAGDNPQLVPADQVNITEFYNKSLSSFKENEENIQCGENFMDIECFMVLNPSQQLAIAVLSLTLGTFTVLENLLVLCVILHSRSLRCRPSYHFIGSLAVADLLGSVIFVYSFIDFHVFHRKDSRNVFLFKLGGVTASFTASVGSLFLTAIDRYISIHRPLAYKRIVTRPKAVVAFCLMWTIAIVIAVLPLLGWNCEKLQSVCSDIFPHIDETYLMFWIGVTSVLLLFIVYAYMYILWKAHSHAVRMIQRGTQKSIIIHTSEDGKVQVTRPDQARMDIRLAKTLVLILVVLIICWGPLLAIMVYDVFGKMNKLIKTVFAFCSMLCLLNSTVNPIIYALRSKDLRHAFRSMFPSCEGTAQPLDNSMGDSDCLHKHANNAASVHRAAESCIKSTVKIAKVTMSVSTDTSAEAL

[8] = molecular target: T6, Alpha-1A adrenergic receptor (Homo sapiens, UniProt P35348)
T6 sequence (P35348 whole entry): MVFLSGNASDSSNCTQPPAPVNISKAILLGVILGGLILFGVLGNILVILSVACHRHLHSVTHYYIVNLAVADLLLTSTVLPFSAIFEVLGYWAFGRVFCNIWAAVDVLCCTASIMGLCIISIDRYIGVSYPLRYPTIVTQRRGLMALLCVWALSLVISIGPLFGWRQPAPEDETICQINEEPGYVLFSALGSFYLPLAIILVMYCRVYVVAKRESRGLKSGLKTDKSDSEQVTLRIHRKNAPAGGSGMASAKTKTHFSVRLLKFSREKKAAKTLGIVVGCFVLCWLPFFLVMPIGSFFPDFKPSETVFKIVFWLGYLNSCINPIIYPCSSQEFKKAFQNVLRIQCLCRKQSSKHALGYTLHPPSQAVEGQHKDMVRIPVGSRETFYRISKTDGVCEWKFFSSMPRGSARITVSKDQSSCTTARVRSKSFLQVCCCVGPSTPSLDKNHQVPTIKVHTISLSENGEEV
Further: assay procedure not described here.

Row | Compound | AC50 (Estrogen receptor) | AC50 (Mu-type opioid receptor [1]) | AC50 [2] | AC50 [3] | AC50 (Adenosine receptor A1) | AC50 [4] | AC50 ([5]; human, cellular components) | AC50 [6] | AC50 ([5]; read-out: AC50) | AC50 (Mu-type opioid receptor [7]) | AC50 (Melanocortin receptor 4) | AC50 (Cannabinoid receptor 1) | AC50 [8]
1 | TOCOFERSOLAN | > 30 µM | > 30 µM | > 30 µM | > 30 µM | > 30 µM | > 30 µM | > 30 µM | > 30 µM |  |  |  |  | 
2 | CCCCCCCCCCCC[N+](C)(C)CCOc1ccccc1 [DOMIPHEN] | 5 µM | > 30 µM | 22 µM | > 30 µM | > 30 µM | > 30 µM |  | > 30 µM | 1.7 µM |  |  |  | 
3 | Cc1c(C(=O)Nc2ccc(N3C[C@@H](C)O[C@@H](C)C3)nc2)cccc1-c1ccc(OC(F)(F)F)cc1 [SONIDEGIB] | > 30 µM |  |  | > 10 µM | > 30 µM | > 10 µM |  | > 10 µM |  | > 10 µM | > 30 µM | > 10 µM | 
4 | Cc1nc2ccc(CN(C)c3ccc(C(=O)N[C@@H](CCC(=O)O)C(=O)O)s3)cc2c(=O)[nH]1 [RALTITREXED] |  | > 30 µM | > 30 µM | > 30 µM | > 30 µM | > 30 µM |  | > 30 µM | > 30 µM |  |  | > 30 µM | 
5 | O=C1NCCN1CCN1CCC(c2cn(-c3ccc(F)cc3)c3ccc(Cl)cc23)CC1 [SERTINDOLE] |  | > 30 µM |  | 17 µM | > 30 µM | > 30 µM |  | > 30 µM |  |  |  |  | 17 nM
6 | O=C(OCCN1CCOCC1)c1cccnc1Nc1cccc(C(F)(F)F)c1 [MORNIFLUMATE] | > 30 µM | > 30 µM | > 30 µM | > 30 µM | > 30 µM | > 30 µM |  | > 30 µM | 4.35 µM |  |  |  | 
7 | CCOC(=O)[C@H](CCc1ccccc1)N[C@H]1CCCN2CCC[C@@H](C(=O)O)N2C1=O [CILAZAPRIL] |  | > 30 µM | > 30 µM | > 30 µM | > 30 µM | > 30 µM |  | > 30 µM | > 30 µM |  |  |  | 
8 | CCOc1cc(N)c([N+](=O)[O-])cc1C(=O)NC1CCN(CC2CC=CCC2)CC1 (stereo not given) [CINITAPRIDE] | > 30 µM | > 30 µM | > 30 µM | 15 µM | > 30 µM | > 30 µM |  | 22 µM | 0.31 µM |  |  |  | 
9 | CN1CC[C@]23CCCC[C@H]2[C@H]1Cc1ccc(O)cc13 [LEVORPHANOL] | > 10 µM |  | > 10 µM | > 10 µM | > 10 µM | 0.652 µM |  | > 30 µM | 13.4 µM |  | > 10 µM | > 10 µM | 
10 | CCCCN1CCCCC1C(=O)Nc1c(C)cccc1C (stereo not given) [BUPIVACAINE] |  | > 30 µM | > 30 µM | > 30 µM | > 30 µM | > 30 µM |  | > 30 µM | 11 µM |  |  |  | 
11 | CN1C(=O)COc2c(C(=O)NC3CN4CCC3CC4)cc(Cl)cc21 (stereo not given) [AZASETRON] | > 30 µM | > 30 µM | > 30 µM | > 30 µM | > 30 µM | > 30 µM |  | 0.0162 µM | 8.5 µM |  |  |  | 
